The text below walks through data of ChEMBL document CHEMBL2046327, “Jomthonic acid , a modified amino acid from a soil-derived Streptomyces” (J Nat Prod, 2012).

Calls of active or inactive are those of the source. The calls are words filed in the database; no cut-off is given here.

One assay has as its system Micrococcus luteus. As to the kind of experiment: Antimicrobial activity against Micrococcus luteus ATCC 9343 after 20 hrs by microplate reader. The class given is functional. To be noted: ATCC 9343, 20 h.
The test system of another assay is Candida albicans. As to the kind of experiment: Antimicrobial activity against Candida albicans IFO1594 after 20 hrs by microplate reader. To be noted: IFO1594, 20 h. In kind it is functional.
A further assay concerns MCF7. Kind of assay: Cytotoxicity against human MCF7 cells after 48 hrs by MTT assay. The class given is functional, cell-based. To be noted: MCF7, 48 h. (Tetrazolium dyes change colour on reduction, which living cells bring about.)
Assay [1] is described as follows: Induction of mouse ST-13 cell differentiation into mature adipocyte at 50 uM. In kind it is functional.
The subject of the next assay is ST-13. As to the kind of experiment: Induction of mouse ST-13 cell differentiation into mature adipocyte at 2 to 50 uM. The class given is functional, cell-based.
Another assay has as its system Escherichia coli. As to the kind of experiment: Antimicrobial activity against Escherichia coli NIH-JC2 after 20 hrs by microplate reader. The class given is functional. The settings on record: NIH-JC2, 20 h.

As for `C/C=C(C)/C=C/C(=O)N[C@H](C(=O)O[C@H](C)[C@@H](C)C(=O)O)[C@H](C)c1ccccc1` [JOMTHONIC ACID A], the MIC with Micrococcus luteus, with Candida albicans and against Escherichia coli was above 50 µg/mL each time. In the assay on MCF7, this compound gave an IC50 above 100 µM. Besides, in assay [1], the Activity is given as 80%. Further, the result in the assay with ST-13 was Active.

By MIC is commonly meant the lowest concentration found to suppress growth. By IC50 is commonly meant the point on the concentration scale where inhibition reaches its midpoint.
